Data on ten compounds can be found in ChEMBL document CHEMBL1201862, “PubChem BioAssay data set” (2004).

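Growth conditions: 96-well plates. Treatment: test compound, 48 hours, 5 concentrations. Analysis: linear interpolation between bracketing concentrations; unreached endpoints set to highest concentration. GI50 marks 50% less growth.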 Active and inactive are the calls of the source. No stated cut-off is given here; in the data, active = GI50 up to about 1.1 µM and inactive = higher. Bounds are passed on as bounds.

Some test systems named below: SF-268; SF-539; HCT-15; COLO 205; TK-10; CAKI-1; NCI-H226; MDA-MB-435; SN12C; SNB-75; NCI-H23; 786-0; PC-3; HT-29; A549; UO-31; MCF7; RXF 393; SK-MEL-28; IGROV-1.
What all share (experiment): NCI-60 cell line screen, 48 h

For `COC(=O)Cc1c(-c2[nH]c3ccccc3c2CC(=O)OC)[nH]c2ccccc12`, the GI50 was 20.4 µM (inactive) with SF-268; 67.5 µM (inactive) in the assay with SF-539; greater than 50.7 µM in the assay on HCT-15; > 53 µM (inactive) in the assay on COLO 205; > 53.2 µM (inactive) in the assay on TK-10; > 37.2 µM (inactive) with CAKI-1. In addition, the GI50 was > 54.7 µM (inactive) with NCI-H226; > 54 µM (inactive) with MDA-MB-435; > 59.4 µM (inactive) in the assay on SN12C; > 57.4 µM (inactive) in the assay on SNB-75; > 55.5 µM (inactive) with NCI-H23; 33.7 µM (inactive) in the assay on 786-0. The GI50 in the assay with PC-3 is > 49 µM (inactive); with HT-29, > 59.3 µM (inactive); with A549, > 52.6 µM (inactive); in the assay with UO-31, > 55.3 µM (inactive); in the assay on MCF7, > 41.1 µM (inactive); in the assay with RXF 393, 30.3 µM (inactive). Further, the values for the GI50 in the assay on SK-MEL-28 and in the assay with IGROV-1 were > 55 µM (inactive) and 45.9 µM (inactive), respectively.
For `N#CCC12CC=CCC1=C(O)C(=O)c1ccc(O)cc12` (stereo not given), the GI50 with SF-268 was > 100 µM (inactive); in the assay with SF-539 it was > 100 µM (inactive); in the assay with HCT-15, greater than 100 µM; with COLO 205, > 100 µM (inactive); in the assay with TK-10, > 100 µM (inactive); in the assay on CAKI-1, > 100 µM (inactive). Besides, the GI50 with NCI-H226 was 68.5 µM (inactive); with MDA-MB-435, > 100 µM (inactive); in the assay on SN12C, > 100 µM (inactive); in the assay on SNB-75, 67.6 µM (inactive); in the assay with NCI-H23, > 100 µM (inactive); in the assay on 786-0 it was > 100 µM (inactive). Further, the GI50 in the assay with PC-3 was > 100 µM (inactive); in the assay on HT-29, > 100 µM (inactive); with A549, > 100 µM (inactive); with UO-31, 48.6 µM (inactive); in the assay on MCF7, > 100 µM (inactive); with RXF 393, > 100 µM (inactive). For the same compound, the GI50 with SK-MEL-28 and with IGROV-1 was > 100 µM (inactive) throughout.
Regarding `O=C1C(=C/C=C2/SC(c3ccccc3)(c3ccccc3)c3ccccc32)C(=O)c2ccccc21`, the GI50 is > 100 µM (inactive) in the assay with SF-268; > 100 µM (inactive) in the assay on SF-539; greater than 100 µM in the assay with HCT-15; > 100 µM (inactive) in the assay with COLO 205; > 100 µM (inactive) with TK-10; > 100 µM (inactive) in the assay on CAKI-1. The GI50 in the assay with NCI-H226, with MDA-MB-435, in the assay with SN12C, in the assay on SNB-75, in the assay on NCI-H23 and in the assay with 786-0 was > 100 µM (inactive) each time. Also, the GI50 in the assay on PC-3 is 80.7 µM (inactive); in the assay on HT-29, > 100 µM (inactive); in the assay with A549 it was > 100 µM (inactive); with UO-31, > 100 µM (inactive); with MCF7 it was > 100 µM (inactive); in the assay with RXF 393, > 100 µM (inactive). The GI50 in the assay on SK-MEL-28 and in the assay on IGROV-1 was > 100 µM (inactive) throughout.
As for `CCOc1cc2c(cc1O)C=C[C@@H]1[C@@H]2CC[C@]2(C)[C@@H](O)CC[C@@H]12`, the GI50 is 9.06 µM (inactive) with SF-268; 2.04 µM (inactive) with SF-539; 0.562 µM in the assay on HCT-15; 21.1 µM (inactive) with COLO 205; 14.4 µM (inactive) in the assay on TK-10; 5.28 µM (inactive) in the assay on CAKI-1. The GI50 is 4.06 µM (inactive) in the assay on NCI-H226; 0.334 µM (active) in the assay with MDA-MB-435; 4.52 µM (inactive) in the assay with SN12C; 3.3 µM (inactive) in the assay on SNB-75; 3.85 µM (inactive) in the assay on NCI-H23; 4.35 µM (inactive) with 786-0. For the same compound, the GI50 was 3.64 µM (inactive) in the assay on PC-3; 10 µM (inactive) in the assay with HT-29; 4.27 µM (inactive) with A549; 6.08 µM (inactive) in the assay with UO-31; 3.61 µM (inactive) in the assay with MCF7; 7.29 µM (inactive) in the assay with RXF 393. The GI50 in the assay on SK-MEL-28 was 22.3 µM (inactive); in the assay with IGROV-1, 2.88 µM (inactive).
Take `N/N=C1N=C(Cl)/C(=C/c2ccco2)N\1`: the GI50 with SF-268 was 34.3 µM (inactive); in the assay on SF-539, 22.4 µM (inactive); in the assay with HCT-15, 31.5 µM; in the assay on COLO 205 it was 43.1 µM (inactive); in the assay with TK-10, 71.9 µM (inactive); in the assay on CAKI-1, 48.6 µM (inactive). Moreover, the GI50 in the assay on NCI-H226 was > 100 µM (inactive); in the assay with MDA-MB-435 it was 40.6 µM (inactive); in the assay with SN12C, 67.1 µM (inactive); in the assay on SNB-75, 32.7 µM (inactive); in the assay with NCI-H23, 54.8 µM (inactive); with 786-0, 61.5 µM (inactive). The GI50 in the assay on PC-3 was 36.7 µM (inactive); in the assay on HT-29, 34.9 µM (inactive); with A549, 38 µM (inactive); in the assay with UO-31, 43.1 µM (inactive); in the assay on MCF7, 56 µM (inactive); with RXF 393 it was 65.2 µM (inactive). In addition, the results for the GI50 with SK-MEL-28 and in the assay on IGROV-1 were 60.8 µM (inactive) and 42.4 µM (inactive), respectively.
With `NC1Cc2ccccc2OC1=O` (stereo not given), the GI50 with SF-268 was > 100 µM (inactive); in the assay on SF-539, > 100 µM (inactive); with HCT-15, greater than 100 µM; in the assay with COLO 205, > 100 µM (inactive); in the assay on TK-10 it was > 100 µM (inactive); in the assay on CAKI-1, > 100 µM (inactive). Also, the GI50 in the assay on NCI-H226, in the assay with MDA-MB-435, in the assay on SN12C, in the assay with SNB-75, in the assay on NCI-H23 and with 786-0 was > 100 µM (inactive) in each case. Moreover, the GI50 in the assay on PC-3, in the assay on HT-29, in the assay on A549, in the assay with UO-31, in the assay with MCF7 and in the assay on RXF 393 was > 100 µM (inactive) each time. In addition, the GI50 in the assay on SK-MEL-28 and in the assay on IGROV-1 was > 100 µM (inactive) throughout.
For the compound `O=C(OCc1ccccc1)C1(N2CN(C3(C(=O)OCc4ccccc4)CCCC3)CN(C3(C(=O)OCc4ccccc4)CCCC3)C2)CCCC1`, the GI50 was > 10 µM (inactive) with SF-268; > 10 µM (inactive) in the assay on SF-539; greater than 10 µM in the assay on HCT-15; > 10 µM (inactive) in the assay with COLO 205; > 10 µM (inactive) in the assay on TK-10; > 10 µM (inactive) in the assay on CAKI-1. Also, the GI50 in the assay on NCI-H226, with MDA-MB-435, with SN12C, with SNB-75, with NCI-H23 and in the assay with 786-0 was > 10 µM (inactive) throughout. The GI50 with PC-3, in the assay on HT-29, in the assay with A549, in the assay on UO-31, in the assay with MCF7 and with RXF 393 was > 10 µM (inactive) throughout. Moreover, the GI50 in the assay on SK-MEL-28 and with IGROV-1 was > 10 µM (inactive) in each case.
`C[C@]12CC[C@H](O)CC1=CC[C@@H]1[C@@H]2CC[C@]2(C)C(=O)[C@@H](N3CCOCC3)C[C@@H]12`: the GI50 in the assay with SF-268 is 48.4 µM (inactive); in the assay on SF-539, > 100 µM (inactive); in the assay on HCT-15 it was greater than 100 µM; in the assay with COLO 205, > 100 µM (inactive); in the assay on TK-10, > 100 µM (inactive); in the assay on CAKI-1, 3.26 µM (inactive). The GI50 is > 100 µM (inactive) with NCI-H226; > 100 µM (inactive) in the assay on MDA-MB-435; > 100 µM (inactive) in the assay with SN12C; 30.6 µM (inactive) with SNB-75; 57.8 µM (inactive) with NCI-H23; > 100 µM (inactive) in the assay with 786-0. Further, the GI50 is > 100 µM (inactive) with PC-3; > 100 µM (inactive) in the assay with HT-29; > 100 µM (inactive) with A549; > 100 µM (inactive) in the assay with UO-31; > 100 µM (inactive) with MCF7; 36.9 µM (inactive) with RXF 393. The GI50 with SK-MEL-28 and in the assay with IGROV-1 was > 100 µM (inactive) in each case.
In the case of `Nc1nc(N)c2cc(-c3cc4ccccc4[nH]3)ccc2n1`, the GI50 was 22.2 µM (inactive) in the assay with SF-268; 19.5 µM (inactive) in the assay on SF-539; 22.1 µM with HCT-15; 10.3 µM (inactive) with COLO 205; 17.7 µM (inactive) with TK-10; 27.4 µM (inactive) in the assay on CAKI-1. Also, the GI50 with NCI-H226 was 27.7 µM (inactive); in the assay with MDA-MB-435 it was 18.5 µM (inactive); in the assay with SN12C it was 33 µM (inactive); with SNB-75, 32.4 µM (inactive); in the assay with NCI-H23, 27.5 µM (inactive); in the assay on 786-0, 22.5 µM (inactive). In addition, the GI50 with PC-3 is 26.2 µM (inactive); with HT-29, 15.5 µM (inactive); with A549, 32.2 µM (inactive); in the assay on UO-31, 15.7 µM (inactive); with MCF7, 18.1 µM (inactive); with RXF 393, 24.8 µM (inactive). For the same compound, the values for the GI50 with SK-MEL-28 and in the assay with IGROV-1 were 22.2 µM (inactive) and 15.8 µM (inactive), respectively.
For the compound `NC(C(=O)O)c1cc(O)no1` (stereo not given), the GI50 is > 100 µM (inactive) in the assay with SF-268; > 100 µM (inactive) in the assay with SF-539; greater than 100 µM in the assay on HCT-15; > 100 µM (inactive) with COLO 205; > 100 µM (inactive) in the assay on TK-10; > 100 µM (inactive) with CAKI-1. The GI50 with NCI-H226, in the assay on MDA-MB-435, with SN12C, in the assay on SNB-75, in the assay with NCI-H23 and with 786-0 was > 100 µM (inactive) each time. Also, the GI50 with PC-3, in the assay with HT-29, in the assay with A549, in the assay with UO-31, in the assay with MCF7 and with RXF 393 was > 100 µM (inactive) in each case. For the same compound, the GI50 in the assay on SK-MEL-28 and in the assay with IGROV-1 was > 100 µM (inactive) in each case.
